SMILES strings stand for the structures. “Also recorded” adds a separate entry of the source.

One data set deals with rats. The data set can be described thus: Body temperature in rats after TRPV1 antagonist followed by acetaminophen. It counts as in vivo. On the procedure:
In this study rats were first treated with vehicle (Oraplus/5% Tween 80) or a TRPV1 antagonist (Compound A; 3 mg/kg, p.o.). Following a 120 min period, separate groups of rats were then administered vehicle (Oraplus/5% Tween 80) or acetaminophen (300 mg/kg, p.o.). Body temperature was then measured for an additional 120 min.

The test system of data set [1] is TRPV1. The following applies: different species; cited from earlier work.
Data set [2] deals with TRPV1. The following applies: cited from earlier work.

Consider `CC(=O)Nc1nc2c(Oc3cc(-c4ccc(C(F)(F)F)cc4NC(=O)OC(C)(C)C)ncn3)cccc2s1` [Compound A, {2-[6-(2-acetylamino-benzothiazol-4-yloxy)-pyrimidin-4-yl]-5-trifluoromethyl-phenyl}-carbamic acid tert-butyl ester], for which the “body temperature following treatment with TRPV1 antagonist” value in the data set on rats (3 mg/kg, p.o., 120 min period after dosing) is recorded as “significant increase in body temperature”. The “body temperature compared to the control group (Veh+Veh)” value in the data set on rats (Compound A 3 mg/kg p.o. followed after 120 min by vehicle (Compound A+Veh group), measured for an additional 120 min) is “remained elevated”.
As for `COc1cc(CNC(=O)CCCC/C=C/C(C)C)ccc1O` [capsaicin], in the data set with TRPV1 [1], the “hypothermia induced by TRPV1 agonists” value is “induce hypothermia”. Moreover, the “hypothermia in mice lacking TRPV1” value with TRPV1 [2] is listed as “did not induce hypothermia”.
For the molecule `CC(=O)Nc1ccc(O)cc1` [acetaminophen], in the data set on rats (Compound A 3 mg/kg p.o., then after 120 min acetaminophen 300 mg/kg p.o. (Compound A+Acet group), measured for an additional 120 min), the “body temperature after TRPV1 antagonist followed by acetaminophen” value is given as “reversed; also recorded: decreased to levels observed in the control group”. The “body temperature, acetaminophen alone” value in the data set with rats (vehicle, then after 120 min acetaminophen 300 mg/kg p.o. (Veh+Acet group)) is recorded as “decreased”.
With `C=C(C)[C@]12C[C@@H](C)[C@@]34O[C@](Cc5ccccc5)(O[C@@H]1[C@@H]3C=C(COC(=O)Cc1ccc(O)c(OC)c1)C[C@]1(O)C(=O)C(C)=C[C@@H]41)O2` [RTX, resiniferatoxin], the “hypothermia induced by TRPV1 agonists” value in the data set on TRPV1 [1] is recorded as “induce hypothermia”.

These data come from patent publication US20090312433A1, “TREATMENT OF VR1-ANTAGONIST-INDUCED INCREASE IN BODY TEMPERATURE WITH AN ANTIPYRETIC AGENT” (Amgen Inc., priority 2005, published 2009).
